According to ChEMBL document CHEMBL1134339, “New 1-aryl-3-(4-arylpiperazin-1-yl)propane derivatives, with dual action at 5-HT1A serotonin receptors and serotonin transporter, as a new class of antidepressants” (J Med Chem, 2001):

How the values were obtained:
[1] = molecular target: T1, 5-hydroxytryptamine receptor 1A (Rattus norvegicus, UniProt P19327); experiment: Binding affinity to 5-hydroxytryptamine 1A receptor (5-HT 1A receptor, serotonin receptor) from rat cortex using [3H]8-OH-DPAT as radioligand
T1 sequence (P19327 whole entry): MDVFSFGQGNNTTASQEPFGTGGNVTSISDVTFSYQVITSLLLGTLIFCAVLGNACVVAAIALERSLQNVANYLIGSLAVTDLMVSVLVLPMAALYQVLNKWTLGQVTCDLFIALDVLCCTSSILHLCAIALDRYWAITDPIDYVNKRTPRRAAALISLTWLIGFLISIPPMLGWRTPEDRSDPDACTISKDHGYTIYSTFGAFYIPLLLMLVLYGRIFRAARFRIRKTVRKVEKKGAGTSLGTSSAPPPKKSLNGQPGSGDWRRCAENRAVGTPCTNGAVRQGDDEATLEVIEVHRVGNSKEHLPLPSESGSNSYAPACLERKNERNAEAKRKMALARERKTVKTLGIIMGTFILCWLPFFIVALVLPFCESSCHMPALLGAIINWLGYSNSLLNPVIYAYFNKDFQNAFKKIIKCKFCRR

[2] = molecular target: Sodium-dependent serotonin transporter (Rattus norvegicus, UniProt P31652); experiment: Binding affinity towards Serotonin transporter from rat cortex measured using [3H]paroxetine; conditions: read-out: Ki
Sodium-dependent serotonin transporter, sequence (P31652 whole entry): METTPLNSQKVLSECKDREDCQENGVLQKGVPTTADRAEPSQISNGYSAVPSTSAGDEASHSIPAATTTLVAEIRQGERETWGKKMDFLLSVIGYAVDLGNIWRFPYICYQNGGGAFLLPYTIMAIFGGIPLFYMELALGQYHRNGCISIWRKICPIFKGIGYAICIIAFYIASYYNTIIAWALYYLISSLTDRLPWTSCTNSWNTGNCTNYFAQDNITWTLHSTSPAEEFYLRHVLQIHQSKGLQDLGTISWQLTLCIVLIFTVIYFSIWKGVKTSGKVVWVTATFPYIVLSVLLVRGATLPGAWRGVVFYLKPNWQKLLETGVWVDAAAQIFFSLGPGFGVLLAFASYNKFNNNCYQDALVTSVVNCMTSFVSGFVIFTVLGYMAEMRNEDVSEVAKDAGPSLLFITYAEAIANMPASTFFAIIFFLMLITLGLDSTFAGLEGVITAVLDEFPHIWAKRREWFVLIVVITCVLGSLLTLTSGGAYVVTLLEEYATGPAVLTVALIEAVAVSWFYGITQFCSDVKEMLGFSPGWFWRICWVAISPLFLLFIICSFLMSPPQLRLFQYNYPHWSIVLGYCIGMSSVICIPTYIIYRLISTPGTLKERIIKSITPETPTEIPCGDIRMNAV

SMILES | Ki ([1]; read-out: Ki) | Ki [2] | Ki [1]
O=C(CCN1CCN(c2ccc(Cl)cc2)CC1)c1ccccc1 | 800 nM | 300 nM | 
O=C(CCN1CCN(c2cccc3ccccc23)CC1)c1csc2ccccc12 | 100 nM | 500 nM | 
COc1ccccc1N1CCN(CCC(=O)c2ccc(C)s2)CC1 | 17.5 nM | > 5000 nM | 
COc1ccccc1N1CCN(CCC(O)c2ccc([N+](=O)[O-])cc2)CC1 (configuration not stated) | 10 nM | 2500 nM | 
Cc1cc(C(=O)CCN2CCN(c3ccccc3O)CC2)c(C)s1 |  | 800 nM | 7.5 nM
O=C(CCN1CCN(c2ccc(Cl)cc2)CC1)c1csc2ccccc12 | > 5000 nM | 5000 nM | 
O=C(CCN1CCN(c2ccccc2Cl)CC1)c1ccsc1 | 200 nM | > 5000 nM | 
O=C(CCN1CCN(c2ccccc2O)CC1)c1ccc2ccccc2c1 | 1000 nM | 2500 nM | 
O=C(CCN1CCN(c2ccccn2)CC1)c1ccccc1 | 50 nM | > 5000 nM | 
COc1cc(Cl)ccc1N1CCN(CCC(=O)c2csc3ccccc23)CC1 | 500 nM | 275 nM | 
FC(F)(F)c1ccc(OC(CCN2CCN(c3ncccn3)CC2)c2ccccc2)cc1 (configuration not stated) | 1600 nM | 1600 nM | 
O=[N+]([O-])c1ccc(N2CCN(CCC(O)c3ccccc3)CC2)cc1 (configuration not stated) | > 5000 nM | 1150 nM | 
COc1ccccc1N1CCN(CCC(Oc2ccc3c(c2)OCO3)c2ccsc2)CC1 (configuration not stated) |  | 6500 nM | 55 nM
COc1ccccc1N1CCN(CCC(=O)c2ccc(-c3ccccc3)cc2)CC1 |  | 700 nM | 3650 nM
COc1cc(Cl)ccc1N1CCN(CCC(=O)c2cc(C)sc2C)CC1 | 500 nM | 275 nM | 
O=C(CCN1CCN(c2ccc([N+](=O)[O-])cc2)CC1)c1ccccc1 | > 5000 nM | > 5000 nM | 
COc1ccccc1N1CCN(CCC(=O)c2ccc([N+](=O)[O-])cc2)CC1 | 50 nM | > 5000 nM | 
O=C(CCN1CCN(c2ncccn2)CC1)c1ccccc1 |  | > 5000 nM | 120 nM
O/N=C(\CCN1CCN(c2ccc(Cl)cc2)CC1)c1ccccc1 | > 5000 nM | 5000 nM | 
FC(F)(F)c1ccc(OC(CCN2CCN(c3ccccn3)CC2)c2ccccc2)cc1 (configuration not stated) |  | 1500 nM | 
COc1ccccc1N1CCN(CCC(Oc2ccc(C(F)(F)F)cc2)c2ccsc2)CC1 (configuration not stated) |  | 460 nM | 255 nM
COc1ccc(C(CCN2CCN(c3ccccc3OC)CC2)Oc2ccc(C(F)(F)F)cc2)cc1 (configuration not stated) | 1000 nM | 650 nM | 
COc1ccccc1N1CCN(CCC(Oc2ccc(C(F)(F)F)cc2)c2ccccc2)CC1 (configuration not stated) |  | 650 nM | 450 nM
COc1cc(Cl)ccc1N1CCN(CCC(O)c2csc3ccccc23)CC1 (configuration not stated) |  | 35 nM | 361 nM

SMILES | Ki ([1]; read-out: Ki) | Ki [2] | Ki [1]
COc1ccc(C(=O)CCN2CCN(c3ccccc3OC)CC2)cc1 |  | > 5000 nM | 
COc1ccccc1N1CCN(CCC(=O)c2ccc([N+](=O)[O-])s2)CC1 |  | > 5000 nM | 340 nM
COc1ccccc1N1CCN(CCC(Oc2ccc(C(F)(F)F)cc2)c2ccc(-c3ccccc3)cc2)CC1 (configuration not stated) | > 5000 nM | > 5000 nM | 
OC(CCN1CCN(c2ccccc2Cl)CC1)c1ccccc1 (configuration not stated) |  | > 5000 nM | 115 nM
O=C(CCN1CCN(c2cccc3ccccc23)CC1)c1ccsc1 |  | 800 nM | 35 nM
COc1ccccc1N1CCN(CCC(=O)c2cccs2)CC1 | 10 nM | > 5000 nM | 
FC(F)(F)c1ccc(OC(CCN2CCN(c3ccccc3Cl)CC2)c2ccccc2)cc1 (configuration not stated) | > 5000 nM | > 5000 nM | 
COc1ccccc1N1CCN(CC/C(=N/O)c2ccc(C)s2)CC1 | 75 nM | 5000 nM | 
OC(CCN1CCN(c2ccc(Cl)cc2)CC1)c1cccs1 (configuration not stated) | > 5000 nM | 290 nM | 
COc1ccc(N2CCN(CCC(=O)c3ccccc3)CC2)cc1 | 5000 nM | > 5000 nM | 
OC(CCN1CCN(c2ncccn2)CC1)c1ccccc1 (configuration not stated) |  | > 5000 nM | 375 nM
COc1ccccc1N1CCN(CC/C(=N\O)c2ccsc2)CC1 |  | 950 nM | 6.5 nM
O=C(CCN1CCN(c2ccccc2Cl)CC1)c1ccccc1 | 180 nM | > 5000 nM | 
FC(F)(F)c1ccc(OC(CCN2CCN(c3ccc(Cl)cc3)CC2)c2ccccc2)cc1 (configuration not stated) | > 5000 nM | 350 nM | 
COc1ccccc1N1CCN(CCC(=O)c2ccccc2)CC1 |  | > 5000 nM | 
COc1ccccc1N1CCN(CCC(=O)c2ccc3ccccc3c2)CC1 | 250 nM | 1000 nM | 
COc1ccc(N2CCN(CCC(O)c3ccccc3)CC2)cc1 (configuration not stated) | > 5000 nM | 1150 nM | 
O=C(CCN1CCN(c2ccc(Cl)cc2)CC1)c1ccsc1 |  | 220 nM | 
O=C(CCN1CCN(c2ccc(F)cc2)CC1)c1ccccc1 | 800 nM | > 5000 nM | 
OC(CCN1CCN(c2ccccn2)CC1)c1ccccc1 (configuration not stated) |  | > 5000 nM | 155 nM
COc1cc(F)ccc1N1CCN(CCC(O)c2csc3ccccc23)CC1 (configuration not stated) | 500 nM | 12 nM | 
COc1ccccc1N1CCN(CCC(O)c2cccs2)CC1 (configuration not stated) |  | 1250 nM | 19 nM
COc1ccccc1N1CCN(CCC(Oc2cccc3ccccc23)c2cccs2)CC1 (configuration not stated) |  | > 5000 nM | 220 nM
COc1ccccc1N1CCN(CCC(=O)c2cc(C)sc2C)CC1 | 5 nM | 1350 nM | 

SMILES | Ki ([1]; read-out: Ki) | Ki [2] | Ki [1]
O=C(CCN1CCN(c2ccc(Cl)cc2)CC1)c1ccc2ccccc2c1 | > 5000 nM | 240 nM | 
Cc1cc(C(O)CCN2CCN(c3ccccc3O)CC2)c(C)s1 (configuration not stated) |  | 2500 nM | 90 nM
COc1ccc(C(O)CCN2CCN(c3ccccc3OC)CC2)cc1 (configuration not stated) |  | 500 nM | 325 nM
OC(CCN1CCN(c2ccc(Cl)cc2)CC1)c1ccc2ccccc2c1 (configuration not stated) | > 5000 nM | 10 nM | 
COc1cc(F)ccc1N1CCN(CCC(=O)c2cc(C)sc2C)CC1 | 13 nM | 750 nM | 
COc1ccccc1N1CCN(CCC(O)c2ccc3ccccc3c2)CC1 (configuration not stated) |  | 380 nM | 420 nM
Clc1ccc(N2CCN(CCC(Oc3ccc4c(c3)OCO4)c3ccccc3)CC2)cc1 (configuration not stated) |  | 375 nM | 550 nM
COc1ccccc1N1CCN(CC/C(=N\O)c2cc(C)sc2C)CC1 | 85 nM | 5000 nM | 
Cc1cc(C(=O)CCN2CCN(c3cccc4ccccc34)CC2)c(C)s1 | 100 nM | 370 nM | 
OC(CCN1CCN(c2ccccc2Cl)CC1)c1ccsc1 (configuration not stated) | 200 nM | > 5000 nM | 
COc1ccccc1N1CCN(CCC(O)c2ccc(C)s2)CC1 (configuration not stated) |  | 5000 nM | 34 nM
COc1ccccc1N1CCN(CCC(Oc2ccc3c(c2)OCO3)c2ccccc2)CC1 (configuration not stated) | 20 nM | 500 nM | 
O=C(CCN1CCN(c2ccccc2O)CC1)c1csc2ccccc12 |  | 490 nM | 110 nM
COc1ccccc1N1CCN(CC/C(=N\O)c2ccccc2)CC1 |  | 5000 nM | 17.5 nM
Fc1ccc(N2CCN(CCC(Oc3ccc(C(F)(F)F)cc3)c3ccccc3)CC2)cc1 (configuration not stated) | > 5000 nM | 500 nM | 
O=C(CCN1CCN(c2ccc(Cl)cc2)CC1)c1cccs1 | > 5000 nM | 60 nM | 
COc1ccc(N2CCN(CCC(Oc3ccc(C(F)(F)F)cc3)c3ccccc3)CC2)cc1 (configuration not stated) | > 5000 nM | > 5000 nM | 
COc1ccc(OC(CCN2CCN(c3ccccc3OC)CC2)c2ccccc2)cc1 (configuration not stated) |  | 1450 nM | 90 nM
COc1cc(F)ccc1N1CCN(CCC(=O)c2csc3ccccc23)CC1 | 500 nM | 500 nM | 
OC(CCN1CCN(c2ccc(F)cc2)CC1)c1ccccc1 (configuration not stated) |  | 4700 nM | 145 nM
COc1ccccc1N1CCN(CC/C(=N/O)c2cc(C)sc2C)CC1 | 130 nM | > 5000 nM | 
COc1ccccc1N1CCN(CCC(O)c2ccsc2)CC1 (configuration not stated) | 50 nM | 385 nM | 
OC(CCN1CCN(c2ccc(Cl)cc2)CC1)c1ccsc1 (configuration not stated) |  | 200 nM | 
